In ChEMBL document CHEMBL1201862, “PubChem BioAssay data set” (2004):
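1) Cells in 96-well plates. 2) Compound, 48 h, 5 concentrations. 3) Linear interpolation between surrounding doses. 4) Unreached endpoint = highest concentration. Here, GI50 denotes the concentration required for 50% inhibition of growth.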 The source made the active and inactive calls. Rule as the data show it: active = GI50 up to about 1.1 µM and inactive = higher.

Experiments:
Test in all cases: inhibition of tumour cell growth, NCI panel, 48 h
XF498 = test system: XF498
M19-MEL = test system: M19-MEL
DLD-1 = test system: DLD-1
LXFL 529 = test system: LXFL 529
DMS-114 = test system: DMS-114
786-0 = test system: 786-0
HOP-18 = test system: HOP-18
RXF 631 = test system: RXF 631
KM-20L2 = test system: KM-20L2

Measured: GI50

CN(C)CCCNC(=O)c1cccc2ccccc12
inactive: XF498 > 100 µM | M19-MEL > 10 µM | DLD-1 > 100 µM | LXFL 529 > 100 µM | DMS-114 > 100 µM

CN1C=C(C(N)=O)C2CC(O)[C@@](NC(=O)CS(N)(=O)=O)(C(=O)O)C2C1 (stereo partly specified)
inactive: 786-0 3.61 µM | XF498 1.27 µM | HOP-18 8.41 µM | M19-MEL 4.39 µM | DLD-1 16.8 µM | RXF 631 2.98 µM | DMS-114 2.52 µM | KM-20L2 3.79 µM

O=C(Nc1ccn(CCO)c(=O)n1)c1ccccc1
inactive: 786-0 > 100 µM | HOP-18 > 100 µM | M19-MEL > 100 µM | DLD-1 > 100 µM | RXF 631 > 100 µM | LXFL 529 > 100 µM | DMS-114 > 100 µM | KM-20L2 > 100 µM

CCCO/N=[N+](\[O-])N(CC)CC
inactive: XF498 > 100 µM | LXFL 529 > 100 µM | KM-20L2 > 100 µM

Nc1nc(=O)[nH]c2c1cnn2COCCO
inactive: XF498 > 100 µM | HOP-18 > 100 µM | DLD-1 > 100 µM | LXFL 529 > 100 µM | DMS-114 > 100 µM | KM-20L2 2.33 µM

COc1ccc(C2C(Cl)C(=O)N2NC(=O)c2ccccc2O)cc1OC (stereo unspecified)
inactive: 786-0 > 100 µM | XF498 15.5 µM | M19-MEL > 100 µM | DLD-1 > 100 µM | LXFL 529 > 10 µM | DMS-114 41.1 µM
